Measured values reported in US20240018118A1, “TRICYCLIC COMPOUNDS TO DEGRADE NEOSUBSTRATES FOR MEDICAL THERAPY” (C 4 Therapeutics, Inc., priority 2020, published 2024).
pIC50: −log10 of the molar value. Like-named read-outs stand apart in the source and are kept apart here.

Assays:
[1] = biological target: T1, CRBN (Homo sapiens, UniProt Q96SW2); assay: NanoBRET CRBN binding, 293T.116 cells; details: 2 hours
T1 construct: expressed in transfected cells; host or cells: 293T (line named 293T.116)

[2] = biological target: GSPT1 (Homo sapiens, UniProt P15170+Q96SW2); assay: HiBiT degradation assay, 293T.114 cells, GSPT1; assay type: cell-based
Description: GSPT1 degradation was determined based on quantification of luminescent signal using Nano-Glo® HiBiT Lytic Assay kit. Test compounds were added to the 384-well plate from a top concentration of 10 μM with 5 points, 3-fold titration in quadruplicates. 293T.114 cells were added into 384-well plates at a cell density of 6000 cells per well. […] The cells treated in the absence of the test compound were the negative control and the cells without Nano-Glo® HiBiT Lytic reagent were the positive control. […] Luminescence was acquired on EnVision™ Multilabel Reader (PerkinElmer, Santa Clara, CA, USA).

[3] = biological target: SALL4 (Homo sapiens, UniProt Q96SW2+Q9UJQ4); assay: HiBiT degradation assay, KELLY.2 (SALL4-HiBiT) cells; assay type: cell-based; details: for DC50: KELLY.2 cells, 6 hours; for Emax: read-out: HiBiT-Degradation KELLY.2 SALL4 6 hours Emax, KELLY.2 cells
Description: RPMI 1640 Medium without phenol red, fetal bovine serum (FBS), and Sodium Pyruvate (100 mM) were purchased from Gibco (Grand Island, NY, USA). Nano-Glo® HiBiT Lytic Assay System was purchased from Promega (Madison, WI, USA). […] Cell culture flasks and 384-well microplates were acquired from VWR (Radnor, PA, USA).
SALL4 degradation was determined based on quantification of luminescent signal using Nano-Glo® HiBiT Lytic Assay kit. Test compounds were added to the 384-well plate from a top concentration of 10 μM with 11 points, half log titration in duplicates. KELLY.2 cells were added into 384-well plates at a cell density of 6000 cells per well. The plates were kept at 37° C. with 5% CO2 for 6 hours. The cells treated in the absence of the test compound were the negative control and the cells without Nano-Glo® HiBiT Lytic reagent were the positive control. After 6-hour incubation, Nano-Glo® HiBiT Lytic Assay reagents were added to the cells. Luminescence was acquired on EnVision™ Multilabel Reader (PerkinElmer, Santa Clara, CA, USA).

[4] = biological target: T2, IKZF1 (Homo sapiens, UniProt Q13422+Q96SW2); assay: HiBiT degradation assay, NCIH929.11 (HiBiT-IKZF1) cells; assay type: cell-based; details: for DC50: NCHI929.11 cells, 6 hours; for Emax: read-out: HiBiT-Degradation NCHI929.11 IKZF1 6 hours Emax, NCHI929.11 cells
T2 construct: endogenously expressing IKZF1 with HiBiT fusion tag via CRISPR; endogenous in cells; host or cells: NCIH929.11 (CRISPR knock-in)
Description: RPMI no-phenol red medium and fetal bovine serum (FBS) were purchased from Gibco (Grand Island, NY, USA). Nano-Glo® HiBiT Lytic Assay System was purchased from Promega (Madison, WI, USA). NCIH929.11 (HiBiT-IKZF1) cell line was generated in house, endogenously expressing IKZF1 with HiBiT fusion tag via CRISPR. Cell culture flasks and 384-well microplates were acquired from VWR (Radnor, PA, USA).
IKZF 1 degradation was determined based on quantification of luminescent signal using Nano-Glo® HiBiT Lytic Assay kit. Test compounds were added to the 384-well plate from a top concentration of 10 μM with 11 points, half-log titration in duplicates. NCIH929.11 cells expressing HiBiT-tagged TKZF1 were added into 384-well plates in RPMI medium containing 10% FBS and 0.05 mM 2-mercaptoethanol at a cell density of 15000 cells per well. The plates were kept at 37° C. with […] for 6 hours. Cells treated in the absence of the test compound were the negative control and wells containing media only were the positive control. After 6-hour incubation, Nano-Glo® HiBiT Lytic Assay reagents were added to the designated wells. Luminescence was acquired on EnVision™ Multilabel Reader (PerkinElmer, Santa Clara, CA, USA).

[5] = 293T.114 cells, 6 hours, read-out: HiBiT-Degradation 293T.114 GSPT1 6 hours DC50
[6] = read-out: HiBiT-Degradation 293T.114 GSPT1 6 hours Emax, 293T.114 cells, 6 hours
[7] = read-out: GSPT1 Emax @ 10 μM 24 Hours, 24 hours
[8] = 293T.114 cells, 24 hours, read-out: HiBiT-Degradation 293T.114 GSPT1 24 hours DC50
[9] = 293T.114 cells, 24 hours, read-out: HiBiT-Degradation 293T.114 GSPT1 24 hours Emax
[10] = 293T.114 cells, 48 hours, read-out: HiBiT-Degradation 293T.114 GSPT1 48 hours DC50
[11] = 293T.114 cells, 48 hours, read-out: HiBiT-Degradation 293T.114 GSPT1 48 hours Emax

T2 sequence (Q13422 whole entry, the tested form may be a part): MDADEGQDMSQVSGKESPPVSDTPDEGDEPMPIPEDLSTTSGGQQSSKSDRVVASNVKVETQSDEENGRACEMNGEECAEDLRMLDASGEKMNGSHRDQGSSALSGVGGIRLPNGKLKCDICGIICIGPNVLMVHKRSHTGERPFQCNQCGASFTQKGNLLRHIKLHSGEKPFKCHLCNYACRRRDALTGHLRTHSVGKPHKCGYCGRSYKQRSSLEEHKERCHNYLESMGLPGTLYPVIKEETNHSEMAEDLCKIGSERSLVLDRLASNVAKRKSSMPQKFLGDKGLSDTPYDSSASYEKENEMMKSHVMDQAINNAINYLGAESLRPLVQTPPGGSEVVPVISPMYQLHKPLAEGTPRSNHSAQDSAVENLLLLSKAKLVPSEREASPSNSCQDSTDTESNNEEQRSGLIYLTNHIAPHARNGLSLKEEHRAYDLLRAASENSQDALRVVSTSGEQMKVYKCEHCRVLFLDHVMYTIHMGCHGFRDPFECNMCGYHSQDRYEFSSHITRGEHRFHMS
T2 sequence (Q96SW2 whole entry, the tested form may be a part): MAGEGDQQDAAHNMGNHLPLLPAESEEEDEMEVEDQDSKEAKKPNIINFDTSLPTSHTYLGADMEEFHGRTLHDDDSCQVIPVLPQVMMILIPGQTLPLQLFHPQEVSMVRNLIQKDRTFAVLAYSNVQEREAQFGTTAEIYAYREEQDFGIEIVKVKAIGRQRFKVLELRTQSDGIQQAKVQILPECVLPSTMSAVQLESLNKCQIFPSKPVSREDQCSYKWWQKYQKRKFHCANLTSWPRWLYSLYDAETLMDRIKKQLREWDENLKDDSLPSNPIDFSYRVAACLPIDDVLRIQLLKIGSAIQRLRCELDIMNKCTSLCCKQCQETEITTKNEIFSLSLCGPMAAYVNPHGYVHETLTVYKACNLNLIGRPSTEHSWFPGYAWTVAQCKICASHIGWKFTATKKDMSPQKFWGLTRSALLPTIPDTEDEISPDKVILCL
T2 sequence (Q16531 2-1140 partner limits assumed): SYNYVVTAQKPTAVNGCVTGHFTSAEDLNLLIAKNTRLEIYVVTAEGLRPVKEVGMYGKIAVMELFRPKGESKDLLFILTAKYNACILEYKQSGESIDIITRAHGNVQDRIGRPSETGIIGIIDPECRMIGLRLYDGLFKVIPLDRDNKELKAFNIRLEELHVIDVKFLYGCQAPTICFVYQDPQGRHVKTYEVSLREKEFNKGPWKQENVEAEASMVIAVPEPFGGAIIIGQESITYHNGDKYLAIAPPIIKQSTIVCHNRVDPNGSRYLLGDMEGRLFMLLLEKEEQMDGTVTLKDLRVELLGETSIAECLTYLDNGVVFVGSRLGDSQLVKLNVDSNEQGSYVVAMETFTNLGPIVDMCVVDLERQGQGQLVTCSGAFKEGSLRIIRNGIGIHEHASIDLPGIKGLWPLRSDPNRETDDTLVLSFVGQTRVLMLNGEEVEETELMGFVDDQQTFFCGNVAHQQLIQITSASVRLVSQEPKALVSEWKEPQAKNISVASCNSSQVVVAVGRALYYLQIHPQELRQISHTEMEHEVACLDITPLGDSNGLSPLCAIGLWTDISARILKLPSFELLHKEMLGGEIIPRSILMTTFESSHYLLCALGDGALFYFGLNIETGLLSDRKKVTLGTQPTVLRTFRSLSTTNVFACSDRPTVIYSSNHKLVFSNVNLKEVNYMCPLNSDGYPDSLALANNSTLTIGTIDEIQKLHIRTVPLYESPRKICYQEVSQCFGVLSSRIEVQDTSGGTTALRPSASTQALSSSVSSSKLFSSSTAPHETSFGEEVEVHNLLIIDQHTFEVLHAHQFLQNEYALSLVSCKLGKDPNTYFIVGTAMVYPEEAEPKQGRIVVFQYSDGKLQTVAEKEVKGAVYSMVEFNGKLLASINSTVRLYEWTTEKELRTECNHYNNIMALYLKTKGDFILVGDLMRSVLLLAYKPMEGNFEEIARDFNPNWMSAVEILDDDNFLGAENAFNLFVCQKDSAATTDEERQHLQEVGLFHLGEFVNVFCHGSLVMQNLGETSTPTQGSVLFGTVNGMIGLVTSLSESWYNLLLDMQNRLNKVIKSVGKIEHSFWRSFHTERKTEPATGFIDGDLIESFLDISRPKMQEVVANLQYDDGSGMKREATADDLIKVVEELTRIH
SALL4, sequence (Q9UJQ4 whole entry): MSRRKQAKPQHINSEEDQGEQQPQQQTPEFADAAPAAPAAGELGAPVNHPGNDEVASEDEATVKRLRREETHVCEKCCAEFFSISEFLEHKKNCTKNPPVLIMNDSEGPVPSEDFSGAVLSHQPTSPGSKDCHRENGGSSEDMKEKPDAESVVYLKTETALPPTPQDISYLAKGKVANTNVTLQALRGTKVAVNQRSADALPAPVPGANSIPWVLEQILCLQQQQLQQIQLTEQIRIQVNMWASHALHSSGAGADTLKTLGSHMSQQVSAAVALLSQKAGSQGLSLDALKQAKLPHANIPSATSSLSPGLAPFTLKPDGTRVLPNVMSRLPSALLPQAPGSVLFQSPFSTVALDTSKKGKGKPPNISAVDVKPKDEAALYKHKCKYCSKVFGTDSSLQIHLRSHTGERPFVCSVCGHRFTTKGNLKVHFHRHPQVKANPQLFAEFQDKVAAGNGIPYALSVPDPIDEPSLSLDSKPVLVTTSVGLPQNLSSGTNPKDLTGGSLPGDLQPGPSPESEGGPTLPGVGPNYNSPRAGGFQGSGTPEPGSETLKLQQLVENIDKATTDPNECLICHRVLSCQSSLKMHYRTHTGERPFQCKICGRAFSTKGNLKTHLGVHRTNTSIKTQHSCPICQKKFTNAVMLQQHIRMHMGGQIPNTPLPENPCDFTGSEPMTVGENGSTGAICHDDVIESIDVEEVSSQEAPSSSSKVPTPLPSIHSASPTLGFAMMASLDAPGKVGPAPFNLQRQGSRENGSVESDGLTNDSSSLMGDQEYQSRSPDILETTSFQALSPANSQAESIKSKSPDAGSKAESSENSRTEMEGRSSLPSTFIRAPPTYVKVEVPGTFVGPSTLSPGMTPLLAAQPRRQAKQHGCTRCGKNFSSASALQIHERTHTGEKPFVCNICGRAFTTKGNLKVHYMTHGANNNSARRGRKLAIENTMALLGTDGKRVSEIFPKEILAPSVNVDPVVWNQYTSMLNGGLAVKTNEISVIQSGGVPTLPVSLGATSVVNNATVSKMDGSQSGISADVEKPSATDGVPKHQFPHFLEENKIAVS
SALL4, sequence (Q96SW2 whole entry): as the sequence (Q96SW2 whole entry, the tested form may be a part) above
SALL4, sequence (Q16531 2-1140 partner limits assumed): as the sequence (Q16531 2-1140 partner limits assumed) above
T1 sequence (Q96SW2 whole entry): as the sequence (Q96SW2 whole entry, the tested form may be a part) above
T1 sequence (Q16531 2-1140 partner limits assumed): as the sequence (Q16531 2-1140 partner limits assumed) above
GSPT1, sequence (P15170 whole entry): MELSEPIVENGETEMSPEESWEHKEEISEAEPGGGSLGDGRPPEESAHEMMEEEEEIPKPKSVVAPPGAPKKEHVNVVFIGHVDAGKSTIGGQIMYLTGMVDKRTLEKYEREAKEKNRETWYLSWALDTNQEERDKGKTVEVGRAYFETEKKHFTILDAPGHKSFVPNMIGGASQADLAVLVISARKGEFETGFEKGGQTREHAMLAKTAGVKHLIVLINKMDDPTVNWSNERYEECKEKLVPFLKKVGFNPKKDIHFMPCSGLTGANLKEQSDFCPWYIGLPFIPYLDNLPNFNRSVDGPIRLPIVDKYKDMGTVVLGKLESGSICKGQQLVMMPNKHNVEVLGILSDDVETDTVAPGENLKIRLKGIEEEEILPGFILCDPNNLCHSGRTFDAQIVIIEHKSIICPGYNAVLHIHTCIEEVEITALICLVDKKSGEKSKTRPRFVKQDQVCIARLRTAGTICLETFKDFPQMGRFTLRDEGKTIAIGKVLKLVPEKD
GSPT1, sequence (Q96SW2 whole entry): as the sequence (Q96SW2 whole entry, the tested form may be a part) above
GSPT1, sequence (Q16531 2-1140 partner limits assumed): as the sequence (Q16531 2-1140 partner limits assumed) above

Structure (SMILES)	pIC50 [1]	DC50 [2, 5] [nM]	Emax [2, 6] [%]	DC50 [3] [nM]	Emax [3] [%]	DC50 [4] [nM]	Emax [4] [%]	Emax [2, 7] [%]	DC50 [2, 8] [nM]	Emax [2, 9] [%]	DC50 [2, 10] [nM]	Emax [2, 11] [%]
CC1(n2cc(Cc3ccc4c5c(cccc35)C(=O)N4C3CCC(=O)NC3=O)cn2)CCN(C(=O)C2CC2)CC1 (stereo not drawn) [Compound 205]	> 7.00	> 10000	60 to 95	< 100	< 45	–	–	–	–	–	–	–
CCOC(=O)c1ccc(Cc2ccc3c4c(cccc24)N(C2CCC(=O)NC2=O)C3=O)cc1 (stereo not drawn) [Compound 61, ethyl 4-((1-(2,6-dioxopiperidin-3-yl)-2-oxo-1,2-dihydrobenzo[cd]indol-5-yl)methyl)benzoate]	> 7.00	> 10000	45 to 60	100 to 1000	< 45	100 to 1000	< 45	< 45	–	–	–	–
CCOC(=O)c1cccc(Cc2ccc3c4c(cccc24)N(C2CCC(=O)NC2=O)C3=O)c1 (stereo not drawn) [Compound 62, ethyl 3-((1-(2,6-dioxopiperidin-3-yl)-2-oxo-1,2-dihydrobenzo[cd]indol-5-yl)methyl)benzoate]	> 7.00	> 10000	60 to 95	> 10000	60 to 95	> 10000	60 to 95	< 45	–	–	–	–
O=C1CCC(N2C(=O)c3ccc(N4CCc5ccccc54)c4cccc2c34)C(=O)N1 (stereo not drawn) [Compound 209, 3-(5-indolin-1-yl-2-oxo-benzo[cd]indol-1-yl)piperidine-2,6-dione]	–	> 10000	60 to 95	< 100	< 45	> 10000	60 to 95	–	–	–	–	–
N#Cc1ccc(Cc2ccc3c4c(cccc24)N(C2CCC(=O)NC2=O)C3=O)cc1 (stereo not drawn) [Compound 66, 4-[[1-(2,6-dioxo-3-piperidyl)-2-oxo-benzo[cd]indol-5-yl]methyl]benzonitrile]	> 7.00	–	–	100 to 1000	45 to 60	> 10000	60 to 95	–	> 10000	60 to 95	> 10000	60 to 95
N#Cc1ccc(N2CCN(Cc3ccc(Cc4ccc5c6c(cccc46)C(=O)N5[C@H]4CCC(=O)NC4=O)cc3)CC2)c(F)c1 [Compound 78, (S)-4-(4-(4-((1-(2,6-dioxopiperidin-3-yl)-2-oxo-1,2-dihydrobenzo[cd]indol-6-yl)methyl)benzyl)piperazin-1-yl)-3-fluorobenzonitrile]	> 7.00	> 10000	60 to 95	< 100	< 45	< 100	< 45	–	–	–	–	–
CC1(C(=O)N2CCC(n3cc(Cc4ccc5c6c(cccc46)C(=O)N5[C@H]4CCC(=O)NC4=O)cn3)CC2)CCC1 [Compound 206, (3S)-3-[6-[[1-[1-(1-methylcyclobutanecarbonyl)-4-piperidyl]pyrazol-4-yl]methyl]-2-oxo-benzo[cd]indol-1-yl]piperidine-2,6-dione]	> 7.00	> 10000	> 95	< 100	< 45	< 100	< 45	–	–	–	–	–
O=C1CCC(N2C(=O)c3ccc(CN4CC(Oc5ccccc5)C4)c4cccc2c34)C(=O)N1 (stereo not drawn) [Compound 158]	> 7.00	< 100	< 45	< 100	< 45	< 100	< 45	–	< 100	< 45	–	–
CC1(n2cc(Cc3ccc4c5c(cccc35)C(=O)N4C3CCC(=O)NC3=O)cn2)CCN(C(=O)C2(C(F)(F)F)CC2)CC1 (stereo not drawn) [Compound 203]	> 7.00	> 10000	60 to 95	< 100	< 45	–	–	–	–	–	–	–
CC1(n2cc(Cc3ccc4c5c(cccc35)C(=O)N4C3CCC(=O)NC3=O)cn2)CCN(C(=O)C2(C#N)CCCCC2)CC1 (stereo not drawn) [Compound 204]	> 7.00	> 10000	60 to 95	< 100	< 45	–	–	–	–	–	–	–
CC(C)OC1CCN(Cc2cc3c4c(cccc4c2)N(C2CCC(=O)NC2=O)C3=O)CC1 (stereo not drawn) [Compound 161]	> 7.00	–	–	> 10000	60 to 95	1000 to 10000	< 45	–	> 10000	60 to 95	> 10000	60 to 95
CC(C)(C)OC(=O)N1CCC(n2cc(Cc3ccc4c5c(cccc35)C(=O)N4[C@H]3CCC(=O)NC3=O)cn2)CC1 [Compound 197, tert-butyl 4-[4-[[1-[(3S)-2,6-dioxo-3-piperidyl]-2-oxo-benzo[cd]indol-6-yl]methyl]pyrazol-1-yl]piperidine-1-carboxylate]	–	> 10000	60 to 95	< 100	< 45	< 100	< 45	–	–	–	–	–
COC(=O)c1ccc(Nc2ccc3cccc4c3c2C(=O)N4C2CCC(=O)NC2=O)cc1 (stereo not drawn) [Compound 186, Methyl 4-[[1-(2,6-dioxo-3-piperidyl)-2-oxo-benzo[cd]indol-3-yl]amino]benzoate]	–	> 10000	60 to 95	> 10000	60 to 95	> 10000	60 to 95	–	–	–	–	–
Cc1ccc(CN2CCC(c3ccc4c5c(cccc35)N(C3CCC(=O)NC3=O)C4=O)CC2)cc1F (stereo not drawn) [Compound 176]	> 7.00	> 10000	60 to 95	> 10000	60 to 95	–	–	–	–	–	–	–
COc1ncc(CN2CCC(c3ccc4c5c(cccc35)N(C3CCC(=O)NC3=O)C4=O)CC2)cn1 (stereo not drawn) [Compound 177]	> 7.00	> 10000	60 to 95	> 10000	60 to 95	–	–	–	–	–	–	–
O=C1CCC(N2C(=O)c3cccc4c(Cc5cnn(C6CCN(C(=O)C7(C(F)(F)F)CCC7)CC6)c5)ccc2c34)C(=O)N1 (stereo not drawn) [Compound 201]	> 7.00	> 10000	> 95	< 100	< 45	–	–	–	–	–	–	–
